The text below walks through data of patent US20260015344A1, “PAN-KRAS INHIBITORS” (Mirati Therapeutics, Inc., priority 2022, published 2026).

The target of experiment [1] is T1, KRas^G12D (Homo sapiens, UniProt P01116, G12D).
T1 construct: corresponding to amino acids 1-169, produced at Accelegan Inc; biotin (biotinylated); purchased Accelegan Inc
The experiment in a line: KRas Binding Assay (TR-FRET displacement), KRas G12D. The conditions noted are these: TR-FRET tracer displacement. As for the experimental part: (§1) This Example illustrates that exemplary compounds of the present invention bind to KRas and are capable of displacing a labeled tracer ligand occupying the KRas binding site. KRas^WT, KRas^G12A, KRas^G12C, KRas^G12D, KRas^G12R, KRas^G12S, KRas^G12V, KRas^G13D, or KRas^Q61H was used in the assay.
(§2) The ability of a compound to bind to KRas was measured using a TR-FRET displacement assay. Biotinylated KRas (corresponding to amino acids 1-169, produced at Accelegan Inc.) was incubated with custom made Cy5 labelled tracer, terbium streptavidin (Cisbio Inc.) and compound (1% DMSO final) in buffer (50 mM HEPES, pH 7.5, 5 mM MgCl2, 0.005% Tween-20 and 1 mM DTT). After a 60-minute incubation at room temperature, the reaction was measured using a BMG LABTECH CLARIO star Plus via TR-FRET. […] The POC values were fit to a 4-parameter IC50 equation and the IC50 value reported.
For orientation: In TR-FRET formats the signal depends on donor and acceptor labels being close together.

Experiment [2] deals with T2, KRas^G12V (Homo sapiens, UniProt P01116, G12V).
T2 construct: corresponding to amino acids 1-169, produced at Accelegan Inc; biotin (biotinylated); purchased Accelegan Inc
The experiment in a line: KRas Binding Assay (TR-FRET displacement), KRas G12V. As to conditions: TR-FRET tracer displacement. Here is the method: as §1, §2

Experiment [3] has as its target T3, KRas^G12R (Homo sapiens, UniProt P01116, G12R).
T3 construct: corresponding to amino acids 1-169, produced at Accelegan Inc; biotin (biotinylated); purchased Accelegan Inc
The experiment in a line: KRas Binding Assay (TR-FRET displacement), KRas G12R. The conditions noted are these: TR-FRET tracer displacement. As for the experimental part: as §1, §2

Experiment [4] has as its target T4, KRas^WT (Homo sapiens, UniProt P01116).
T4 construct: corresponding to amino acids 1-169, produced at Accelegan Inc; biotin (biotinylated); purchased Accelegan Inc
The experiment in a line: KRas Binding Assay (TR-FRET displacement), KRas WT. As to conditions: TR-FRET tracer displacement. As for the experimental part:
as §1, §2

Experiment [5] has as its target T5, KRas^G13D (Homo sapiens, UniProt P01116, G13D).
T5 construct: corresponding to amino acids 1-169, produced at Accelegan Inc; biotin (biotinylated); purchased Accelegan Inc
The experiment in a line: KRas Binding Assay (TR-FRET displacement), KRas G13D. As to conditions: TR-FRET tracer displacement. As for the experimental part: as §1, §2

In experiment [6] the target is T6, KRas^Q61H (Homo sapiens, UniProt P01116, Q61H).
T6 construct: corresponding to amino acids 1-169, produced at Accelegan Inc; biotin (biotinylated); purchased Accelegan Inc
The experiment in a line: KRas Binding Assay (TR-FRET displacement), KRas Q61H. The conditions noted are these: TR-FRET tracer displacement. Here is the method: as §1, §2

In experiment [7] the target is T7, KRas^G12A (Homo sapiens, UniProt P01116, G12A).
T7 construct: corresponding to amino acids 1-169, produced at Accelegan Inc; biotin (biotinylated); purchased Accelegan Inc
The experiment in a line: KRas Binding Assay (TR-FRET displacement), KRas G12A. As to conditions: TR-FRET tracer displacement. As for the experimental part: as §1, §2

The target of experiment [8] is T8, KRas^G12C (Homo sapiens, UniProt P01116, G12C).
T8 construct: corresponding to amino acids 1-169, produced at Accelegan Inc; biotin (biotinylated); purchased Accelegan Inc
The experiment in a line: KRas Binding Assay (TR-FRET displacement), KRas G12C. The conditions noted are these: TR-FRET tracer displacement. As for the experimental part:
as §1, §2

For experiment [9], the target named is T9, KRas^G12S (Homo sapiens, UniProt P01116, G12S).
T9 construct: corresponding to amino acids 1-169, produced at Accelegan Inc; biotin (biotinylated); purchased Accelegan Inc
The experiment in a line: KRas Binding Assay (TR-FRET displacement), KRas G12S. The conditions noted are these: TR-FRET tracer displacement. Here is the method: as §1, §2

The subject of experiment [10] is KRas-mediated Phosphorylation of ERK in AsPC-1 cells. The experiment in a line: HTRF pERK assay, AsPC-1 cells. The format is cell-based. As to conditions: Homo sapiens, ASPC1, 3 hrs compound incubation, read-out: Inhibition (HTRF IC50 nM) of KRas-mediated Phosphorylation of ERK, AsPC-1. As for the experimental part: (§3) • Day 1: Seed 6,000 cells/well-25 μl/well in 384-well white solid bottom plate; RPM1_10% FBS.
(§4) • 1. To harvest cells from flask using 0.05% Trypsin/EDTA solution. Add 10 mL of media to stop trypsinizing. Pipette the cells into a conical bottom 50 mL centrifuge tube and centrifuge 5 min×1000 rpm. • 2. Re-suspend the cell pellet in media, take a cell count, and then adjust the cell density using fresh media. • 3. Seed 6,000 cells into cell culture plate with 50 μL media. The • 4. Incubate cell plate overnight in a 37° C., 5% CO2 incubator.
(§5) • 1. Use Tecan to complete the compound addition. Compounds start from 10 uM top, 3-fold dilution, and 10 doses. The final DMSO concentration is 0.8%. Dispensed 0.2 uM Trametinib as Min control. • 2. Incubate cell plate for 3 hrs in the incubator. Detection with Cisbio pERK HTRF Kit • 1. Dilute 1 volume of 4× lysis buffer with 3 volumes of deionized water. Then, add 100× the blocking reagent. Keep lysis buffer on the ice. • 2. At the end of the compound treatment, flick-off the media. • 3. Add 35 μL of lysis buffer per well using a Multidrop Combi. Then place on a plate agitator shaking at 300 rpm at 4° C. for 40 mins. • 4. Make up the HTRF antibody buffer. For each assay plate, mix 50 μL of d2-conjugate antibody with 950 μL of detection buffer. Similarly, mix 50 μL of Cryptate antibody with 950 μL of detection buffer. Then mix the two diluted antibodies together. • 5. Dispense 3.4 μL the antibody buffer to wells of an empty assay plate. Seal the plate and centrifuge plate 30 sec×1000 rpm. • 6. At the end of the 4° C. lysis, centrifuge the lysate plates 3 mins×1500 rpm. • 7. Use the Bravo to transfer 13.6 μL of lysate from cell culture plate to assay plate. Then incubate assay plate for 2 hrs at room temperature. • 8. At the end of incubation, read plate on the Envision after centrifuging plate 30 sec×1000 rpm.

The test system of experiment [11] is KRas-mediated Phosphorylation of ERK in H727 cells. The experiment in a line: HTRF pERK assay, H727 cells. The format is cell-based. As to conditions: Homo sapiens, NCI-H727, 3 hrs compound incubation, read-out: Inhibition (HTRF IC50 nM) of KRas-mediated Phosphorylation of ERK, H727. As for the experimental part:
as §3, §4, §5

Experiment [12] has as its system KRas-mediated Phosphorylation of ERK in MKN1 cells. The experiment in a line: HTRF pERK assay, MKN1 cells. The format is cell-based. As to conditions: Homo sapiens, MKN-1, 3 hour compound incubation, read-out: Inhibition (HTRF IC50 nM) of KRas-mediated Phosphorylation of ERK, MKN1. As for the experimental part:
Cisbio HTRF Advanced pERK Assay Catalog #64AERPEH • Cells: MKN1, PSN1
as §3

Experiment [13] relates to KRas-mediated Phosphorylation of ERK in HCT116 cells. The experiment in a line: HTRF pERK assay, HCT116 cells. The format is cell-based. As to conditions: Homo sapiens, HCT-116, 3 hrs compound incubation, read-out: Inhibition (HTRF IC50 nM) of KRas-mediated Phosphorylation of ERK, HCT116. As for the experimental part: as §3, §4
as §5, with “Similarly, mix 50 μL of Cryptate antibody with 950 μL of detection buffer. Then mix the two diluted antibodies together. • 5. Dispense 3.4 μL the antibody buffer to wells of an empty assay plate. Seal the plate and centrifuge plate 30 sec×1000 rpm. • 6. At the end of the 4° C. lysis, centrifuge the lysate plates 3 mins×1500 rpm. • 7. Use the Bravo to transfer 13.6 μL of lysate from cell culture plate to assay plate. Then incubate assay plate for 2 hrs at room temperature. • 8.” left out

Experiment [14] deals with KRas-mediated Phosphorylation of ERK in A549 cells. The experiment in a line: HTRF pERK assay, A549 cells. In kind it is cell-based. The conditions noted are these: Homo sapiens, 3 hrs compound incubation, read-out: Inhibition (HTRF IC50 nM) of KRas-mediated Phosphorylation of ERK, A549. Here is the method:
as §3, §4
as §5, with “Similarly, mix 50 μL of Cryptate antibody with 950 μL of detection buffer. Then mix the two diluted antibodies together. • 5. Dispense 3.4 μL the antibody buffer to wells of an empty assay plate. Seal the plate and centrifuge plate 30 sec×1000 rpm. • 6. At the end of the 4° C. lysis, centrifuge the lysate plates 3 mins×1500 rpm. • 7. Use the Bravo to transfer 13.6 μL of lysate from cell culture plate to assay plate. Then incubate assay plate for 2 hrs at room temperature. • 8.” left out

The subject of experiment [15] is KRas-mediated Phosphorylation of ERK in H460 cells. The experiment in a line: HTRF pERK assay, H460 cells. The conditions noted are these: Homo sapiens, NCI-H460, 3 hrs compound incubation, read-out: Inhibition (HTRF IC50 nM) of KRas-mediated Phosphorylation of ERK, H460. The format is cell-based. Here is the method:
as §3, §4
as §5, with “Similarly, mix 50 μL of Cryptate antibody with 950 μL of detection buffer. Then mix the two diluted antibodies together. • 5. Dispense 3.4 μL the antibody buffer to wells of an empty assay plate. Seal the plate and centrifuge plate 30 sec×1000 rpm. • 6. At the end of the 4° C. lysis, centrifuge the lysate plates 3 mins×1500 rpm. • 7. Use the Bravo to transfer 13.6 μL of lysate from cell culture plate to assay plate. Then incubate assay plate for 2 hrs at room temperature. • 8.” left out

The test system of experiment [16] is KRas-mediated Phosphorylation of ERK in H358 cells. The experiment in a line: HTRF pERK assay, H358 cells. As to conditions: Homo sapiens, NCI-H358, 3 hrs compound incubation, read-out: Inhibition (HTRF IC50 nM) of KRas-mediated Phosphorylation of ERK, H358. In kind it is cell-based. As for the experimental part: as §3, §4
as §5, with “Similarly, mix 50 μL of Cryptate antibody with 950 μL of detection buffer. Then mix the two diluted antibodies together. • 5. Dispense 3.4 μL the antibody buffer to wells of an empty assay plate. Seal the plate and centrifuge plate 30 sec×1000 rpm. • 6. At the end of the 4° C. lysis, centrifuge the lysate plates 3 mins×1500 rpm. • 7. Use the Bravo to transfer 13.6 μL of lysate from cell culture plate to assay plate. Then incubate assay plate for 2 hrs at room temperature. • 8.” left out

Experiment [17] relates to KRas-mediated Phosphorylation of ERK in H2009 cells. The experiment in a line: HTRF pERK assay, H2009 cells. As to conditions: Homo sapiens, NCI-H2009; H2009 cells by column count (c8); may be PSN1; read-out: Inhibition (HTRF IC50 nM) of KRas-mediated Phosphorylation of ERK, H2009. In kind it is cell-based.

T1 sequence (P01116 1-169 isoform P01116-2 G12D): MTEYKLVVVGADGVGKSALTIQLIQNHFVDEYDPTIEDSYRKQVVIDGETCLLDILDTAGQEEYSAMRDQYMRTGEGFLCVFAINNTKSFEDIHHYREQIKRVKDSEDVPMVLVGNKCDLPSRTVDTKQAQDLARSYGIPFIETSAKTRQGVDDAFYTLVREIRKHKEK
T2 sequence (P01116 1-169 isoform P01116-2 G12V): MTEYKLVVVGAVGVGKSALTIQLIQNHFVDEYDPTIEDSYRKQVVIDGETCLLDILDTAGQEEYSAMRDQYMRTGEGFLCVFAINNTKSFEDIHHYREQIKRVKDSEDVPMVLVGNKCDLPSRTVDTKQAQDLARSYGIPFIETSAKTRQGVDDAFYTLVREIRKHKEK
T3 sequence (P01116 1-169 isoform P01116-2 G12R): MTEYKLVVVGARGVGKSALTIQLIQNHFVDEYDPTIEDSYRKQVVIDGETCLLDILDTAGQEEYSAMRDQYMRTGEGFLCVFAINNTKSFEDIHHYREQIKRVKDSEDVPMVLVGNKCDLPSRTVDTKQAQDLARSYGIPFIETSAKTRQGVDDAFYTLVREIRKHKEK
T4 sequence (P01116 1-169 isoform P01116-2): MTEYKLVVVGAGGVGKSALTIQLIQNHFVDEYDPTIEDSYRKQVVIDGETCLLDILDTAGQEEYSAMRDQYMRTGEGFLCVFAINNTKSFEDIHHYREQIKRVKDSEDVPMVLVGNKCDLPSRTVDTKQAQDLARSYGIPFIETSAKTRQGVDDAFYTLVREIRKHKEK
T6 sequence (P01116 1-169 isoform P01116-2 Q61H): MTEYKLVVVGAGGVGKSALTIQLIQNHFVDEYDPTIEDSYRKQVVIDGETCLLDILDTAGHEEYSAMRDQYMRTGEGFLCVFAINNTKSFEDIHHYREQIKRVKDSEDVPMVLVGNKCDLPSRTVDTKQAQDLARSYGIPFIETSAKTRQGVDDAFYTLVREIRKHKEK
T8 sequence (P01116 1-169 isoform P01116-2 G12C): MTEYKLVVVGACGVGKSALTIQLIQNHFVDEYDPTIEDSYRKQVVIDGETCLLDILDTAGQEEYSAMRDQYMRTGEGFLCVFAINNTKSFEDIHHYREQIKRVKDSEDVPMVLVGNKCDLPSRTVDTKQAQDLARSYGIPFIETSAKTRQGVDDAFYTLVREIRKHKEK
T7 sequence (P01116 1-169 isoform P01116-2 G12A): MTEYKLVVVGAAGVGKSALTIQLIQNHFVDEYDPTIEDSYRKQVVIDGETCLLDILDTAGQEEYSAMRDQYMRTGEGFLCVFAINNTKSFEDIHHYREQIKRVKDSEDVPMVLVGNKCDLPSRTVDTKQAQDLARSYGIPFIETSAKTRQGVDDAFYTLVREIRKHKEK
T9 sequence (P01116 1-169 isoform P01116-2 G12S): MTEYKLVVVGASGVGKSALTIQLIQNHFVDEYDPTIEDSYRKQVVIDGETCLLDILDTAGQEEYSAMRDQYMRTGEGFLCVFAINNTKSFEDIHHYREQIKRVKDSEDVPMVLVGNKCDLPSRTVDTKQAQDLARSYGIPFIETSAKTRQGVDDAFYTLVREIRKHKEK
T5 sequence (P01116 1-169 isoform P01116-2 G13D): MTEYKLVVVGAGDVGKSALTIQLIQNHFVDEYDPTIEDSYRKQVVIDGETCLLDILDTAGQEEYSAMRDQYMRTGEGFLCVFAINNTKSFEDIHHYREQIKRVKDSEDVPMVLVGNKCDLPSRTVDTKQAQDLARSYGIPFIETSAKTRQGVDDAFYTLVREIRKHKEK

For the molecule `C[C@H](Oc1nc(-c2cc(C3(C)CCCc4sc(N)c(C#N)c43)sn2)cc(N2C[C@H]3CC[C@@H](C2)N3)n1)[C@@H]1CCCN1C` (stereo partly drawn) [Example 9, 4-(3-(6-((1R,5S)-3,8-diazabicyclo[3.2.1]octan-3-yl)-2-((S)-1-((S)-1-methylpyrrolidin-2-yl)ethoxy)pyrimidin-4-yl)isothiazol-5-yl)-2-amino-4-methyl-4,5,6,7-tetrahydrobenzo[b]thiophene-3-carbonitrile], the IC50 (usually the midpoint of a concentration-inhibition curve) in experiment [1] was determined as 36 nM; in experiment [2] it was 1040 nM; in experiment [3], 1340 nM; in experiment [4], 566 nM; in [5] it was 1320 nM; in experiment [6], 2290 nM. Also, the IC50 is 3080 nM in experiment [7]; 3490 nM in experiment [8]; 3420 nM in experiment [9]; 3010 nM in experiment [10]; at least 10000 nM in [11].
Take `C[C@H](Oc1nc(-c2cc(C3(C)CCCc4sc(N)c(C#N)c43)sn2)cc(N2CCCC3(CNS(=O)(=O)N3)C2)n1)[C@@H]1CCCN1C` (stereo partly drawn) [Example 10, 2-amino-4-(3-(6-(2,2-dioxido-2-thia-1,3,7-triazaspiro[4.5]decan-7-yl)-2-((S)-1-((S)-1-methylpyrrolidin-2-yl)ethoxy)pyrimidin-4-yl)isothiazol-5-yl)-4-methyl-4,5,6,7-tetrahydrobenzo[b]thiophene-3-carbonitrile]: the IC50 in experiment [1] was 3 nM; in [2] it was 4 nM; in experiment [3], under 2 nM; in experiment [4], 31 nM; in [5], 24 nM; in experiment [6], 9 nM. Further, the IC50 is 35 nM in experiment [7]; 15 nM in experiment [8]; 25 nM in experiment [9]; 898 nM in [10]; 3900 nM in [11]; 10 nM in experiment [12]. Also, the IC50 in experiment [13] stood at 962 nM; in experiment [14], 727 nM; in experiment [15], 288 nM; in experiment [16], 216 nM; in [17], 9300 nM.
`C[C@H](Oc1nc(-c2noc(C3(C)CCCc4sc(N)c(C#N)c43)n2)cc(N2CCOCC(C)(O)C2)n1)[C@@H]1CCCN1C` (stereo partly drawn) [Example 13, 2-amino-4-(3-(6-(6-hydroxy-6-methyl-1,4-oxazepan-4-yl)-2-((S)-1-((S)-1-methylpyrrolidin-2-yl)ethoxy)pyrimidin-4-yl)-1,2,4-oxadiazol-5-yl)-4-methyl-4,5,6,7-tetrahydrobenzo[b]thiophene-3-carbonitrile]: the IC50 in experiment [1] stood at 11 nM; in experiment [2] it was 6 nM; in experiment [3] it was 4 nM; in experiment [10] it was 507 nM; in experiment [11], 469 nM; in experiment [12], 44 nM. Further, the IC50 in experiment [13] was 899 nM; in experiment [14], 689 nM; in [15], 394 nM; in experiment [16], 43 nM; in experiment [17], over 10000 nM.
